Experimental data published in patent publication US20050256161A1, “Melanin concentrating hormone receptor antagonists” (priority 2003, published 2005).

Assays:
[1] = target: T1, rat MCH 1 receptor (rMCH1R) (Rattus norvegicus, UniProt P97639); test: Ligand binding assay (125I native-MCH), rMCH; details: rMCH1R expressed in HEK 293, membranes, 0.2 nM 125I native-MCH; threshold 100 μM or less
T1 construct: expressed in transfected cells; host or cells: HEK 293 (membrane preparation)
Method: (§1) Human embryonic kidney cells (293 total) expressing either human, rat, or mouse MCH receptor were harvested from 150 mm culture dishes using PBS. Spinning at 1500 rpm for 2 minutes initially pelleted cells. The resulting pellet was then homogenized in 15 mL ice cold sucrose buffer (25 mM HEPES, 0.3 M sucrose, pH 7.4) with a motorized, glass fitted, Teflon® homogenizer. The homogenate was centrifuged at 48,000×g at 4° C. for 10 minutes, resuspended in 15 mL assay buffer (25 mM HEPES, 10 mM MgCl2, 0.2% BSA, 0.1 mg/mL STI, 0.1 mg/mL Pefabloc®, 1 μM Phosphoramidon, pH 7.4) with a Tissue-Tearor® (Biospec Products) and centrifuged again at 48,000×g for 10 minutes. The pellet was homogenized for a third time in 15 mL assay buffer using the Tissue-Tearor® and again centrifuged at 48,000×g for 10 minutes. The resulting pellet was resuspended in assay buffer at a wet weight concentration of 10-20 mg/mL.
(§2) Binding assays were determined as described below using mouse, rat or human MCH 1 receptors (mMCH1R, rMCH1R, and hMCH1R, respectively) expressed in HEK 293; IC50 values were calculated.
(§3) Binding assays were performed in 96-well U-bottom plates. Membranes (100 μg tissue) were incubated at 30° C. for 90 minutes in assay buffer with various peptides in the presence of 0.2 nM 125I native-MCH (Perkin-Elmer Life Sciences, Boston, Mass.) in 100 μL total volume. Non-specific binding was assessed in the presence of 1 μM cold native-MCH. The reaction was terminated by rapid filtration through Unfilter-96 GF/C glass fiber filter plates (FilterMate® 196 Harvester, Packard Instrument Co., Meriden, Conn.) pre-soaked in PBS/0.5% BSA, followed by three washes with 300 μL ice-cold water. Bound radioactivity was determined using a TopCount® microplate scintillation and luminescence counter (Packard Instrument Co., Meriden, Conn.). Nonlinear regression analyses of drug concentration curves were performed using GraphPad Prism® (GraphPad Software, Inc., San Diego, Calif.).

human MCH receptor = target: T2, human MCH receptor (Homo sapiens, UniProt Q99705); test: hMCH FLIPR calcium mobilization functional assay; assay type: cell-based
T2 construct: expressed in transfected cells
T2 sequence (Q99705 whole entry): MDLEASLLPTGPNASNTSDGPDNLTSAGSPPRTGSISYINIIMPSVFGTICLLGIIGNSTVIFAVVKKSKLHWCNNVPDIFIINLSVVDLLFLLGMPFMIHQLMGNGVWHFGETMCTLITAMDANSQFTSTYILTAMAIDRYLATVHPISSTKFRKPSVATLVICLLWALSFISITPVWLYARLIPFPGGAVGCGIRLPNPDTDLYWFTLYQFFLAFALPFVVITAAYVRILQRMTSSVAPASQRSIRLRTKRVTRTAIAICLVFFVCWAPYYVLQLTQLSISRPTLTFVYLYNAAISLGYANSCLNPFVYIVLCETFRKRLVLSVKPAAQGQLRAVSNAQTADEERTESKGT

rat MCH1 receptor = target: T3, rat MCH1 receptor (Rattus norvegicus, UniProt P97639); test: rMCH FLIPR calcium mobilization functional assay; assay type: cell-based; details: CHOK1-Gqi cells, threshold 100 μM or less
T3 construct: expressed in transfected cells
T3 sequence (P97639 whole entry): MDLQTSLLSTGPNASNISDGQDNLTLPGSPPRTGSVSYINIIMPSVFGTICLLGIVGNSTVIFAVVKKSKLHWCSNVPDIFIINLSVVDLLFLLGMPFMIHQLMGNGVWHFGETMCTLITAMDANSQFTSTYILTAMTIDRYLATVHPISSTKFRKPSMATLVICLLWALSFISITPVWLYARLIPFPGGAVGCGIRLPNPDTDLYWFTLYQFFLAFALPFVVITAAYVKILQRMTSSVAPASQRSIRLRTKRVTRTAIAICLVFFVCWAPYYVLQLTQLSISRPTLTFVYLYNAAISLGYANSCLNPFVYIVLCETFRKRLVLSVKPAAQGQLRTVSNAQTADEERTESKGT
Method: Pharmacological analyses were conducted using either a HT-PS100 device (Axiom Biotechnologies, San Diego, Calif.), which provides high-resolution dose-response fluorometric measurements of [Ca^++]i mobilization, or using a FLIPR® device (Molecular Devices, Sunnyvale, Calif.).
Materials: Pharmacological analysis was conducted using a FLIPR® device (Molecular Devices, Sunnyvale, Calif.). CHOK1-Gqi cells were stably transfected with the rat MCH1 receptor and maintained under G418 antibiotic pressure. FLIPR® assay buffer consisted of phenol red-free DMEM+2.5 mM probenecid. MCH peptide (Amgen, Inc.) was reconstituted in assay buffer and served as the positive agonist control for all experiments. Test compounds were prepared as 10 mM stocks in 100% DMSO and diluted to a top end working concentration of 10 μM in 96 well black, flat bottom, collagen-I coated plates (Becton Dickinson, Bedford, Mass.).
Methods: CHOK1-Gqi cells stably expressing MCH1R were maintained in Dulbeco's modified Eagle's medium (GIBCO/Life Technologies, Rockville, Md.) supplemented with 2 mM glutamine and 10% dialyzed fetal bovine serum (HyClone, Logan, Utah) at 37° C., 5% CO2. Cells were harvested by 10′ treatment with Versene (GIBCO/Life Technologies) followed by trituration, washing twice with cold (4° C.) hybridoma medium (Serum/Protein free, with L-glutamine, sodium bicarbonate, MOPS buffer) (Sigma-Aldrich Corp, St. Louis, Mo.) and replated onto 96 well black, flat bottom, collagen-I coated plates to a density of 10,000 cells/well. The cells were then loaded with the fluorescent calcium indicator Fura-2 (Molecular Probes, Eugene, Oreg.) at 1.6 μM for 60′ at room temperature. The loaded cells were then washed twice with 90 μl/well of wash buffer (1×HBSS, 20 mM HEPES, 2.5 mM probenecid).
Receptor-stimulated intracellular calcium responses were detected using FLIPR® by monitoring increases in the Fura-2 fluorescence response.
Test compounds were screened for MCH1R activity in the FLIPR® for both agonist and antagonist action. Agonist mode challenges were conducted at a maximum gradient concentration of 1 μM. Antagonist activity was tested by 10 min pre-incubation of cells at a compound concentration of defined to be 300× the EC50 of MCH (typically 1 μM), with subsequent introduction of MCH at a concentration 5-fold of EC50 as determined in preliminary experiments.
Schild experiments were conducted on the FLIPR® for selected compounds by co-administering antagonist compounds together with MCH peptide. Several fixed concentrations of antagonist compounds were prepared in 10-fold increments, and presented to the cells in a gradient of increasing MCH concentration. Values for compound pA2 were calculated by linear regression of MCH EC50s as a function of antagonist concentration.

[2] = target: T4, human MCH 1 receptor (hMCH1R) (Homo sapiens, UniProt Q99705); test: Ligand binding assay (125I native-MCH), hMCH; details: hMCH1R expressed in HEK 293, membranes, 0.2 nM 125I native-MCH
T4 construct: expressed in transfected cells; host or cells: HEK 293 (membrane preparation)
T4 sequence (Q99705 whole entry): as the sequence (Q99705 whole entry) above
Method: as §1, §2, §3

T1 sequence (P97639 whole entry): as the sequence (P97639 whole entry) above

Row | IC50 [1] [µM] | Ki (human MCH receptor; threshold 100 nM or less) [µM] | Ki (human MCH receptor; threshold 100 μM or less) [µM] | Ki (rat MCH1 receptor) [µM] | IC50 ([2]; threshold 100 μM or less) [µM] | IC50 ([2]; threshold 100 nM or less) [µM] | SMILES
1 | ≤ 100 | ≤ 0.1 | ≤ 100 | ≤ 100 | ≤ 100 |  | Cc1ccc(Oc2ccc(C(=O)NCCN3CCCC3)cc2NC(=O)Nc2c(C)cccc2C)cc1C [Compound 35, 4-(3,4-dimethylphenoxy)-3-[3-(2,6-dimethylphenyl)ureido]-N-(2-pyrrolidin-1-yl-ethyl)benzamide]
2 | ≤ 100 |  | ≤ 100 | ≤ 100 | ≤ 100 | ≤ 0.1 | Cc1ccc(Oc2ccc(C(=O)NCCN3CCCC3)cc2NC(=O)Nc2cccc3ccccc23)cc1C [Compound 36, 4-(3,4-dimethylphenoxy)-3-(3-naphthalen-1-yl-ureido)-N-(2-pyrrolidin-1-yl-ethyl)benzamide]
